US6358929B1, “Use of a peptide preventing the intolerance reactions of the skin, in particular in cosmetic compositions” (L'Oreal, priority 1998, dated 2002)

Tests used:
female Balb/C mice [1] = assay: Contact hypersensitivity to TNCB after sensitization, peptide injected i.v. before sensitization; format: in vivo, mouse; settings: 1.5 μg peptide i.v. (tail vein) 2 hours before TNCB sensitization; triggering 7 days later; measured 24 hours after triggering; positive controls 9.8×10^−2 mm, negative controls 1×10^−2 mm
Description: The study is carried out on 7-to 10-week-old female Balb/C mice.
A dose of 1.5 μg of the peptide studied (in solution in PBS buffer containing 0.1% of mouse serum) is injected into a vein of the tail of the mice 2 hours before the sensitization reaction.
The sensitization reaction consists in applying, with a brush, 100 μl of a solution containing 0.15% of TNCB in an acetone-olive oil (4:1) mixture to the shaved skin of the abdomen of the mice.
The triggering reaction is carried out 7 days after the sensitization reaction. This triggering reaction consists in applying to the two sides of an ear 10 microlitres of a solution containing 0.8% of TNCB in a vehicle consisting of the acetone-olive oil mixture already mentioned above.
To the other ear, only this mixture of acetone and olive oil is applied, for comparison.
The intensity of a possible contact hypersensitivity reaction is evaluated by estimating the size of the oedema of the ear treated with TNCB, in comparison with the ear treated with the vehicle alone. For that, the thickness of the ears is measured and compared with the aid of a micrometer screw. This measurement is carried out 24 hours after the triggering reaction.
The TNCB is also applied to the ear of control mice which have not been previously sensitized (negative controls).

female Balb/C mice [2] = assay: Contact hypersensitivity to TNCB after a second sensitization (tolerance test); format: in vivo, mouse; settings: same mice re-sensitized with TNCB 14 days after the first experiment, no new peptide; triggering 7 days later; measured 24 hours later; positive controls 14×10^−2 mm
Description: 14 days after the end of the experiment described in a) above, the same mice are subjected to a new sensitization reaction on the shaved skin of the back, as described in a).
7 days later, the triggering test is carried out by application of TNCB to the ear, and 24 hours later, the degree of swelling of the ear is measured.
The aim of this second experiment is to distinguish between a possible a specific temporary immunosuppression and a specific immunological tolerance.

female Balb/C mice [3] = assay: Contact hypersensitivity to TNCB, peptide applied topically in a water-in-oil cream; format: in vivo, mouse; settings: peptide in water-in-oil cream applied to the area to be sensitized 2 hours before sensitization; 24 hours after triggering; positive controls 7×10^−2 mm
Description: The procedure is carried out as in a) above, but the peptide, incorporated in a cream of the water-in-oil type, is applied to the area to be sensitized 2 hours before the sensitization.
24 hours after the triggering reaction, the increase in the thickness of the ear is on average 3×10^−2 mm in the treated mice and 7×10^−2 mm in the positive controls.

[4] = tested on: volunteer patients in whom a contact allergy to nickel was suspected; assay: Topical effect on contact hypersensitivity reaction to nickel sulphate patch; format: in vivo, humans; settings: cream containing 100 μM peptide under occlusive dressing on the back, 2 hours before 5% nickel sulphate patch; examined 24 hours later
Description: This study was carried out on 18 to 65 year-old volunteer patients in whom a contact allergy to nickel was suspected.
On day 0, there are applied with an occlusive dressing, to areas of the skin of the back, on the one hand a cream containing 100 μM of the peptide of formula II, and on the other hand the cream alone, without peptide, used as placebo.
Two hours later, patches impregnated with petroleum jelly containing nickel sulphate at a concentration of 5% are applied to the same areas of the skin, and also to an adjacent area that has not been pretreated.
24 hours later, the patients are examined. Those who developed a contact hypersensitivity reaction over the area treated with the placebo (and also over the adjacent area which received only the application of nickel salt), and who are therefore people who were already sensitized to nickel, are 14 in number.

Ac-D-Lys-D-Pro-D-Val-NH2 [II]
increase in the thickness of the ear (female Balb/C mice [1]): about 2.5×10^−2 mm | degree of swelling of the ear (increase in the thickness of the ear) (female Balb/C mice [2]): ~3.5×10^−2 mm | increase in the thickness of the ear (female Balb/C mice [3]): 3×10^−2 mm | people (out of 14 already sensitized to nickel) who did not develop any contact hypersensitivity reaction over the area treated with the peptide [4]: 7
